Results reported in US7575882B2, “Compositions and methods for identifying modulators of TRPV2” (Janssen Pharmaceutica N. V., priority 2005, dated 2009).

Molecular target: T1, rat TRPV2 (Rattus norvegicus, UniProt Q9WUD2, A713V/L151P/T158I)
T1 construct: A cDNA fragment encoding the full-length rat TRPV2 was subcloned into pCI-neo; expressed in transfected cells
T1 sequence (Q9WUD2 1-761 L151P/T158I/A713V): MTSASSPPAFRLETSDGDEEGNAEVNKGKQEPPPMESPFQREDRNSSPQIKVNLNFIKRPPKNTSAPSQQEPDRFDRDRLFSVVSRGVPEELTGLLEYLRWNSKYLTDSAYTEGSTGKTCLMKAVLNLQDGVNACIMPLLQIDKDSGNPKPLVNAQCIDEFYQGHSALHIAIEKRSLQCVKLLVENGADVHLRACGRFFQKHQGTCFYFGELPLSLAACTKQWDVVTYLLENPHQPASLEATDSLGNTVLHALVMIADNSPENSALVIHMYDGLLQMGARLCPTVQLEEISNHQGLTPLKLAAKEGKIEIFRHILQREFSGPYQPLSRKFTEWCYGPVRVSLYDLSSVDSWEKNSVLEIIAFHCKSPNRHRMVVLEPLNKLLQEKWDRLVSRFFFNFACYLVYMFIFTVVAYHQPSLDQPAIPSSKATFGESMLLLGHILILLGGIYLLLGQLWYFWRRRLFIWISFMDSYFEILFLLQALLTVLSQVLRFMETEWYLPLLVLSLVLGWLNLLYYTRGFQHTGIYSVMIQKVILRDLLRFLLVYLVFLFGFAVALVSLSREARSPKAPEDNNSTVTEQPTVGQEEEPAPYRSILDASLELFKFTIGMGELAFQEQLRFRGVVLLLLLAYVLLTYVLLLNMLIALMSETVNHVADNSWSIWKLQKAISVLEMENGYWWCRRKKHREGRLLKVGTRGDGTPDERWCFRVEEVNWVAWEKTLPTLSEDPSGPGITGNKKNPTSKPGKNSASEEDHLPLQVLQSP
Test: Whole-cell patch clamp, HEK293 cells stably expressing rat TRPV2
Type: cell-based
Settings: 100 μM
Description: To further confirm the Δ^9-THC effect on TRPV2, whole-cell patch clamp studies were performed. The extracellular solution contained (in mM): NaCl, 132; CaCl, 1.8; KCl, 5.4; MgCl2, 0.8; HEPES, 10; glucose, 10; pH=7.4. The intracellular solution used to fill recording pipettes contained (in mM): CsCl, 145; EGTA, 5; HEPES, 10; glucose, 5; pH=7.4. Recordings were performed using the conventional whole-cell patch clamp technique, 2-3 days after transient transfection of human TRPV2 into HEK293 cell or 1-2 days after plating HEK293 cells stably expressing rat TRPV2 onto glass coverslips. Currents were amplified by a patch clamp amplifier and filtered at 2 kHz (Axopatch 200B), sampled at 10 kHz using Digidata 1322A and acquired and analyzed with pClamp 9.0 (all instruments from Molecular Devices, CA). A 600 ms voltage ramp was given once every five seconds from −100 mV to +60 mV. The holding potential between voltage ramps was −100 mV. Extracellular solutions were applied to the cell at 0.5 ml/min via a gravity-fed perfusion system. All experiments were performed at 22° C.

Delta-9-tetrahydrocannabinol [Δ^9-THC]
whole-cell current amplitude in HEK293 cells expressing rTRPV2 compared to control (22° C., hyperpolarized and depolarized potentials): significant increase of the whole-cell current amplitude
reversal potential of the activated current (whole-cell patch clamp): ~0 mV
